Reference: patent US9765105B2, “Macrolide compound” (Pulike Biological Engineering, Inc., priority 2013, dated 2017)

How the values were obtained:
Test in all cases: in vitro susceptibility, MIC by mini broth dilution
Assay type in all cases: cell-based
[1] = test system: Staphylococcus aureus CVCC26003; details: strain CVCC26003
How it was run: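 S. aureus CVCC26003 was revived and subcultured twice, 20 h each at 35° C, on solid medium, then diluted 1:200 in CAMHB liquid medium. Compounds received an 11-step two-fold DMSO dilution in parallel duplicate rows. MIC was read by mini broth dilution per NCCLS guidance.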

[2] = test system: Actinobacillus pleuropneumoniae CVCC262; details: strain CVCC262
How it was run: (§1)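 Read-out is the minimum inhibitory concentration, measured by mini broth dilution following the US NCCLS approved standard, with 11 two-fold compound dilutions in DMSO and a 1:200-diluted inoculum.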

Haemophilus parasuis = test system: Haemophilus parasuis
How it was run: as §1

[3] = test system: Pasteurella multocida CVCC399; details: strain CVCC399
How it was run: as §1

[4] = test system: Streptococcus equines CVCC556; details: strain CVCC556
How it was run: as §1

CCCN1C[C@H](C)[C@@H](O)[C@](C)(O)[C@@H](CC)OC(=O)[C@H](C)[C@@H](O[C@H]2C[C@@](C)(OC)[C@](O)(CNN3CCOCC3)[C@H](C)O2)[C@H](C)[C@@H](O[C@@H]2O[C@H](C)C[C@H](N(C)C)[C@H]2O)[C@](C)(O)C[C@H]1C [syzx-148]
MIC values, Staphylococcus aureus CVCC26003 [1]: 0.25 ug/mi
MIC values, Actinobacillus pleuropneumoniae CVCC262 [2]: 0.5 ug/mi
MIC values, Haemophilus parasuis (Haemophilus parasuis): 0.5 ug/mi
MIC values, Pasteurella multocida CVCC399 [3]: 1 ug/mi
MIC values, Streptococcus equines CVCC556 [4]: 0.25 ug/mi

CCCN1C[C@H](C)[C@@H](O)[C@](C)(O)[C@@H](CC)OC(=O)[C@H](C)[C@@H](O[C@H]2C[C@@](C)(OC)[C@](O)(CNCc3ccc(Cl)cc3)[C@H](C)O2)[C@H](C)[C@@H](O[C@@H]2O[C@H](C)C[C@H](N(C)C)[C@H]2O)[C@](C)(O)C[C@H]1C [syzx-120]
MIC values, Staphylococcus aureus CVCC26003 [1]: 0.25 ug/mi
MIC values, Actinobacillus pleuropneumoniae CVCC262 [2]: 0.25 ug/mi
MIC values, Haemophilus parasuis (Haemophilus parasuis): 0.25 ug/mi
MIC values, Pasteurella multocida CVCC399 [3]: 0.5 ug/mi
MIC values, Streptococcus equines CVCC556 [4]: 0.25 ug/mi

CCCN1C[C@H](C)[C@@H](O)[C@](C)(O)[C@@H](CC)OC(=O)[C@H](C)[C@@H](O[C@H]2C[C@@](C)(OC)[C@](O)(CNc3ccc([N+](=O)[O-])cc3[N+](=O)[O-])[C@H](C)O2)[C@H](C)[C@@H](O[C@@H]2O[C@H](C)C[C@H](N(C)C)[C@H]2O)[C@](C)(O)C[C@H]1C [syzx-228]
MIC values, Staphylococcus aureus CVCC26003 [1]: 2 ug/mi
MIC values, Actinobacillus pleuropneumoniae CVCC262 [2]: 1 ug/mi
MIC values, Haemophilus parasuis (Haemophilus parasuis): 1 ug/mi
MIC values, Pasteurella multocida CVCC399 [3]: 2 ug/mi
MIC values, Streptococcus equines CVCC556 [4]: 0.25 ug/mi

CCCN1C[C@H](C)[C@@H](O)[C@](C)(O)[C@@H](CC)OC(=O)[C@H](C)[C@@H](O[C@H]2C[C@@](C)(OC)[C@](O)(CNc3ccc(Cl)nc3)[C@H](C)O2)[C@H](C)[C@@H](O[C@@H]2O[C@H](C)C[C@H](N(C)C)[C@H]2O)[C@](C)(O)C[C@H]1C [syzx-208]
MIC values, Staphylococcus aureus CVCC26003 [1]: 4 ug/mi
MIC values, Actinobacillus pleuropneumoniae CVCC262 [2]: 4 ug/mi
MIC values, Haemophilus parasuis (Haemophilus parasuis): 4 ug/mi
MIC values, Pasteurella multocida CVCC399 [3]: 4 ug/mi
MIC values, Streptococcus equines CVCC556 [4]: 0.5 ug/mi

CCCN1C[C@H](C)[C@@H](O)[C@](C)(O)[C@@H](CC)OC(=O)[C@H](C)[C@@H](O[C@H]2C[C@@](C)(OC)[C@](O)(CNC3CC3)[C@H](C)O2)[C@H](C)[C@@H](O[C@@H]2O[C@H](C)C[C@H](N(C)C)[C@H]2O)[C@](C)(O)C[C@H]1C [syzx-217]
MIC values, Staphylococcus aureus CVCC26003 [1]: 0.25 ug/mi
MIC values, Actinobacillus pleuropneumoniae CVCC262 [2]: 0.25 ug/mi
MIC values, Haemophilus parasuis (Haemophilus parasuis): 0.25 ug/mi
MIC values, Pasteurella multocida CVCC399 [3]: 0.5 ug/mi
MIC values, Streptococcus equines CVCC556 [4]: 0.25 ug/mi

CCCN1C[C@H](C)[C@@H](O)[C@](C)(O)[C@@H](CC)OC(=O)[C@H](C)[C@@H](O[C@H]2C[C@@](C)(OC)[C@](O)(CNCCCC(OC)OC)[C@H](C)O2)[C@H](C)[C@@H](O[C@@H]2O[C@H](C)C[C@H](N(C)C)[C@H]2O)[C@](C)(O)C[C@H]1C [syzx-205]
MIC values, Staphylococcus aureus CVCC26003 [1]: 4 ug/mi
MIC values, Actinobacillus pleuropneumoniae CVCC262 [2]: 4 ug/mi
MIC values, Haemophilus parasuis (Haemophilus parasuis): 4 ug/mi
MIC values, Pasteurella multocida CVCC399 [3]: 4 ug/mi
MIC values, Streptococcus equines CVCC556 [4]: 0.5 ug/mi

CCCN1C[C@H](C)[C@@H](O)[C@](C)(O)[C@@H](CC)OC(=O)[C@H](C)[C@@H](O[C@H]2C[C@@](C)(OC)[C@](O)(CNc3cc(Cl)nc(Cl)n3)[C@H](C)O2)[C@H](C)[C@@H](O[C@@H]2O[C@H](C)C[C@H](N(C)C)[C@H]2O)[C@](C)(O)C[C@H]1C [syzx-237]
MIC values, Staphylococcus aureus CVCC26003 [1]: 2 ug/mi
MIC values, Actinobacillus pleuropneumoniae CVCC262 [2]: 4 ug/mi
MIC values, Haemophilus parasuis (Haemophilus parasuis): 4 ug/mi
MIC values, Pasteurella multocida CVCC399 [3]: 8 ug/mi
MIC values, Streptococcus equines CVCC556 [4]: 0.25 ug/mi

CCCN1C[C@H](C)[C@@H](O)[C@](C)(O)[C@@H](CC)OC(=O)[C@H](C)[C@@H](O[C@H]2C[C@@](C)(OC)[C@](O)(CN3CCNCC3)[C@H](C)O2)[C@H](C)[C@@H](O[C@@H]2O[C@H](C)C[C@H](N(C)C)[C@H]2O)[C@](C)(O)C[C@H]1C [syzx-136]
MIC values, Staphylococcus aureus CVCC26003 [1]: 0.25 ug/mi
MIC values, Actinobacillus pleuropneumoniae CVCC262 [2]: 0.5 ug/mi
MIC values, Haemophilus parasuis (Haemophilus parasuis): 0.25 ug/mi
MIC values, Pasteurella multocida CVCC399 [3]: 0.5 ug/mi
MIC values, Streptococcus equines CVCC556 [4]: 0.25 ug/mi

CC[C@H]1OC(=O)[C@H](C)[C@@H](O[C@H]2C[C@@](C)(OC)[C@](O)(CNc3ccc(C)c(C)c3)[C@H](C)O2)[C@H](C)[C@@H](O[C@@H]2O[C@H](C)C[C@H](N(C)C)[C@H]2O)[C@](C)(O)C[C@@H](C)NC[C@H](C)[C@@H](O)[C@]1(C)O [syzx-84, (2R,3S,4R,5S,8R,10R,11R,12S,13S,14R)-13-[(2,6-dideoxy-3-C-methyl-3-O-methyl-4-C-[(3,4-dimethylphenyl-amino)-methyl]-α-L-ribopyranosyl)oxy]-2-ethyl-3,4,10-trihydroxy-3,5,8,10,12,14-hexamethyl-11-[[3,4,6-trideoxy-3-(dimethylamino)-β-D-xylo-hexopyranosy]oxy]-1-oxa-7-azacyclopentadecan-15-one]
MIC values, Staphylococcus aureus CVCC26003 [1]: ≦0.25 ug/mi
MIC values, Actinobacillus pleuropneumoniae CVCC262 [2]: 2 ug/mi
MIC values, Haemophilus parasuis (Haemophilus parasuis): ≦0.25 ug/mi
MIC values, Pasteurella multocida CVCC399 [3]: 0.25 ug/mi
MIC values, Streptococcus equines CVCC556 [4]: ≦0.25 ug/mi

(2R,3S,4R,5S,8R,10R,11R,12S,13S,14R)-13-[(2,6-dideoxy-3-C-methyl-3-O-methyl-4-C-[(thienylformyloxymethyl-2-amino)-methyl]-α-L-ribopyranosyl)oxy]-2-ethyl-3,4,10-trihydroxy-3,5,8,10,12,14-hexamethyl-11-[[3,4,6-trideoxy-3-(dimethylamino)-β-D-xylo-hexopyranosy]oxy]-1-oxa-7-azacyclopentadecan-15-one [syzx-77]
MIC values, Staphylococcus aureus CVCC26003 [1]: 0.25 ug/mi
MIC values, Actinobacillus pleuropneumoniae CVCC262 [2]: 16 ug/mi
MIC values, Haemophilus parasuis (Haemophilus parasuis): 0.25 ug/mi
MIC values, Pasteurella multocida CVCC399 [3]: 0.5 ug/mi
MIC values, Streptococcus equines CVCC556 [4]: 0.5 ug/mi

CCCN1C[C@H](C)[C@@H](O)[C@](C)(O)[C@@H](CC)OC(=O)[C@H](C)[C@@H](O[C@H]2C[C@@](C)(OC)[C@](O)(CNc3ccccc3)[C@H](C)O2)[C@H](C)[C@@H](O[C@@H]2O[C@H](C)C[C@H](N(C)C)[C@H]2O)[C@](C)(O)C[C@H]1C [syzx-104]
MIC values, Staphylococcus aureus CVCC26003 [1]: 0.25 ug/mi
MIC values, Actinobacillus pleuropneumoniae CVCC262 [2]: 0.25 ug/mi
MIC values, Haemophilus parasuis (Haemophilus parasuis): 0.25 ug/mi
MIC values, Pasteurella multocida CVCC399 [3]: 1 ug/mi
MIC values, Streptococcus equines CVCC556 [4]: 0.25 ug/mi

CCCN1CC(C)C(O)C(C)(O)C(CC)OC(=O)C(C)C(OC2CC(C)(OC)C(O)(CNCCOS(=O)(=O)O)C(C)O2)C(C)C(OC2OC(C)CC(N(C)C)C2O)C(C)(O)CC1C (stereo not shown) [syzx-153]
MIC values, Staphylococcus aureus CVCC26003 [1]: 0.25 ug/mi
MIC values, Actinobacillus pleuropneumoniae CVCC262 [2]: 0.25 ug/mi
MIC values, Haemophilus parasuis (Haemophilus parasuis): 0.25 ug/mi
MIC values, Pasteurella multocida CVCC399 [3]: 1 ug/mi
MIC values, Streptococcus equines CVCC556 [4]: 0.25 ug/mi

CC[C@H]1OC(=O)[C@H](C)[C@@H](O[C@H]2C[C@@](C)(OC)[C@](O)(CNCCCNCCc3ccc(S(C)(=O)=O)cc3)[C@H](C)O2)[C@H](C)[C@@H](O[C@@H]2O[C@H](C)C[C@H](N(C)C)[C@H]2O)[C@](C)(O)C[C@@H](C)NC[C@H](C)[C@@H](O)[C@]1(C)O [Syzx-61, (2R,3S,4R,5S,8R,10R,11R,12S,13S,14R)-13-[(2,6-dideoxy-3-C-methyl-3-O-methyl-4-C-[[(4-mesylphenylethylamino)propylamino]-methyl]-α-L-ribopyranosyl)oxy]-2-ethyl-3,4,10-trihydroxy-3,5,8,10,12,14-hexamethyl-11-[[3,4,6-trideoxy-3-(dimethylamino)-β-D-xylo-hexopyranosy]oxy]-1-oxa-7-azacyclopentadecan-15-one]
MIC values, Staphylococcus aureus CVCC26003 [1]: ≦0.25 ug/mi
MIC values, Actinobacillus pleuropneumoniae CVCC262 [2]: 32 ug/mi
MIC values, Haemophilus parasuis (Haemophilus parasuis): ≦0.25 ug/mi
MIC values, Pasteurella multocida CVCC399 [3]: 1 ug/mi
MIC values, Streptococcus equines CVCC556 [4]: 0.5 ug/mi

CCCN1C[C@H](C)[C@@H](O)[C@](C)(O)[C@@H](CC)OC(=O)[C@H](C)[C@@H](O[C@H]2C[C@@](C)(OC)[C@](O)(CNC(C)CCCN(CC)CC)[C@H](C)O2)[C@H](C)[C@@H](O[C@@H]2O[C@H](C)C[C@H](N(C)C)[C@H]2O)[C@](C)(O)C[C@H]1C (stereo partly shown) [syzx-159]
MIC values, Staphylococcus aureus CVCC26003 [1]: 0.5 ug/mi
MIC values, Actinobacillus pleuropneumoniae CVCC262 [2]: 0.25 ug/mi
MIC values, Haemophilus parasuis (Haemophilus parasuis): 0.25 ug/mi
MIC values, Pasteurella multocida CVCC399 [3]: 0.5 ug/mi
MIC values, Streptococcus equines CVCC556 [4]: 0.25 ug/mi
